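1) Cells in 96-well plates. 2) Compound, 48 h, 5 concentrations. 3) Linear interpolation between surrounding doses. 4) Unreached endpoint = highest concentration. GI50 = concentration required for 50% inhibition of growth. TGI marks complete inhibition of growth.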
How the values were obtained:
Assay in all cases: growth of human tumour cells (NCI), 48 h
MDA-MB-231 breast = system: MDA-MB-231 breast
HOP-92 NSCLC = system: HOP-92 NSCLC
HT29 colon = system: HT29 colon
EKVX NSCLC = system: EKVX NSCLC
SF-539 CNS = system: SF-539 CNS
HS 578T breast = system: HS 578T breast
HCT-116 colon = system: HCT-116 colon
NCI/ADR-RES ovarian = system: NCI/ADR-RES ovarian
SR leukemia = system: SR leukemia
UACC-62 melanoma = system: UACC-62 melanoma

| Structure (SMILES) | GI50 (MDA-MB-231 breast) [µM] | TGI (MDA-MB-231 breast) [µM] | GI50 (HOP-92 NSCLC) [µM] | TGI (HOP-92 NSCLC) [µM] | GI50 (HT29 colon) [µM] | TGI (HT29 colon) [µM] | GI50 (EKVX NSCLC) [µM] | TGI (EKVX NSCLC) [µM] | GI50 (SF-539 CNS) [µM] | TGI (SF-539 CNS) [µM] | GI50 (HS 578T breast) [µM] | TGI (HS 578T breast) [µM] | GI50 (HCT-116 colon) [µM] | TGI (HCT-116 colon) [µM] | GI50 (NCI/ADR-RES ovarian) [µM] | TGI (NCI/ADR-RES ovarian) [µM] | GI50 (SR leukemia) [µM] | TGI (SR leukemia) [µM] | GI50 (UACC-62 melanoma) [µM] | TGI (UACC-62 melanoma) [µM] |
| --- | --- | --- | --- | --- | --- | --- | --- | --- | --- | --- | --- | --- | --- | --- | --- | --- | --- | --- | --- | --- |
| Cc1ccc2c(c1)C(C)Cc1c(ncnc1-n1cnc3ccccc31)N2C (configuration not stated) | 0.809 | 18.2 | 6.76 | 27.7 | 0.34 | 12.1 | 0.511 | 17.5 | 0.337 | 13.5 | 0.376 | 28.9 | 0.407 | 11.9 | 0.275 | 14.8 | 0.0649 | 11 | – | – |
| O=C1c2ccccc2-c2c1c1ccccc1c(=O)n2CCCCNCCCn1c2c(c3ccccc3c1=O)C(=O)c1ccccc1-2 | 0.319 | 1.34 | 0.994 | 3.45 | 0.0929 | 8.95 | 0.782 | 1.75 | 0.492 | 2.07 | 0.822 | 16 | 0.00948 | 0.688 | 0.582 | 1.72 | 0.005 | 0.0273 | 0.445 | 3.22 |
| COc1cc(NS(C)(=O)=O)ccc1Nc1c2ccc([N+](=O)[O-])cc2nc2c(C)cccc12 | 3.82 | 16.4 | 0.111 | 1.68 | 1.41 | 7.1 | – | – | 0.241 | 1.97 | 1.96 | 22.3 | 0.361 | 10.7 | 6.95 | 35.1 | < 0.012 | 5.82 | 0.377 | 11.1 |
| CN(Cc1cnc2nc(N)nc(N)c2n1)c1ccc(C(=O)NC(CCC(=O)O)C(=O)O)cc1C(F)(F)F (configuration not stated) | – | > 100 | – | > 100 | – | > 100 | – | > 100 | – | > 100 | – | > 100 | – | > 100 | – | > 100 | – | 1.24 | – | – |
| Cc1nc(-c2cccc(Nc3nc(-c4ccc(Cl)cc4)cs3)c2)cs1 | 11.1 | 23.3 | 17.1 | > 50 | – | – | 8.6 | 17.2 | – | – | 14.1 | 34.9 | 11.6 | 27.5 | 5.14 | 12.2 | 8.31 | 27 | 6.83 | 15 |
| C=C1C(=O)O[C@H]2[C@H]1CC/C(CNC(=O)Cc1c[nH]c3ccccc13)=C\CC[C@@]1(C)O[C@@H]21 | 3.87 | 17.5 | 2.17 | 5.25 | 0.451 | 11.1 | 10.6 | 22.4 | 1.92 | 9.1 | 11.9 | 45.5 | 0.533 | 2.55 | 19 | 65.6 | 0.314 | 2.84 | – | – |
| FC(F)(F)c1nc(N2CCCC2)ncc1-c1nnnn1-c1ccc(Cl)cc1 | 24.6 | > 100 | – | – | 20.4 | 65.9 | 29 | > 100 | 39.8 | > 100 | 21.2 | > 100 | 23 | 54.6 | 23 | 62.2 | 2.53 | 6.24 | 7.49 | > 100 |
